Consider one compound from publication PMC8829089, “The Pseudomonas aeruginosa homeostasis enzyme AlgL clears the periplasmic space of accumulated alginate during polymer biosynthesis” (The Journal of Biological Chemistry, 2022).

The target of the experiment is T1, AlgL (NHis6-AlgL^28–362) (Pseudomonas aeruginosa, UniProt Q06749).
T1 construct: residues 28-362, signal peptide removed, N-terminal His6 tag (pET28b), expressed in E. coli; one molecule in the asymmetric unit
As to the kind of experiment: X-ray crystal structure, […] Å. The class given is binding. Particulars: cocrystallized with 8 mM mannuronate trisaccharide (ManA3); only one sugar monomer seen in density, subsite +1 of active site.

T1 sequence (Q06749 28-362): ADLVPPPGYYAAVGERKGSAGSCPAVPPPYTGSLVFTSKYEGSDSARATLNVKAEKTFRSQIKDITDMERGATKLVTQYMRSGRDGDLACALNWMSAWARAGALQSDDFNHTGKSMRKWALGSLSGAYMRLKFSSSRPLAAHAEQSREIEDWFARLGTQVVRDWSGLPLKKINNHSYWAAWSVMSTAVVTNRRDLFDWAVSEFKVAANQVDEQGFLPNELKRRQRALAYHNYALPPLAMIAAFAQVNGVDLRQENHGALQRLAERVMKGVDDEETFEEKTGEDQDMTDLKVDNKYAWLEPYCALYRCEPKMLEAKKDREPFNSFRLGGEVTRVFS

On to `O=C(O)[C@H]1OC(O)[C@@H](O)[C@@H](O)[C@@H]1O` (stereo partly shown) [ManA, mannuronate], for which the “X-ray crystal structure, 1.64 Å” value is listed as “we were only able to detect electron density for a sugar monomer”.
